Reference: ChEMBL document CHEMBL3085700 (J Med Chem, 2013)
The source made the active and inactive calls. The calls are words filed in the database; no cut-off is given here.

Assays:
[1] = biological target: T1, Fatty-acid amide hydrolase 1 (Homo sapiens, UniProt O00519); test: Inhibition of human recombinant FAAH overexpressed in African green monkey COS7 cells using [3H]-anandamide as substrate preincubated for 10 mins before substrate addition measured after 10 mins by liquid scintillation counting analysis; format: cell-based, COS-7
T1 sequence (O00519 whole entry): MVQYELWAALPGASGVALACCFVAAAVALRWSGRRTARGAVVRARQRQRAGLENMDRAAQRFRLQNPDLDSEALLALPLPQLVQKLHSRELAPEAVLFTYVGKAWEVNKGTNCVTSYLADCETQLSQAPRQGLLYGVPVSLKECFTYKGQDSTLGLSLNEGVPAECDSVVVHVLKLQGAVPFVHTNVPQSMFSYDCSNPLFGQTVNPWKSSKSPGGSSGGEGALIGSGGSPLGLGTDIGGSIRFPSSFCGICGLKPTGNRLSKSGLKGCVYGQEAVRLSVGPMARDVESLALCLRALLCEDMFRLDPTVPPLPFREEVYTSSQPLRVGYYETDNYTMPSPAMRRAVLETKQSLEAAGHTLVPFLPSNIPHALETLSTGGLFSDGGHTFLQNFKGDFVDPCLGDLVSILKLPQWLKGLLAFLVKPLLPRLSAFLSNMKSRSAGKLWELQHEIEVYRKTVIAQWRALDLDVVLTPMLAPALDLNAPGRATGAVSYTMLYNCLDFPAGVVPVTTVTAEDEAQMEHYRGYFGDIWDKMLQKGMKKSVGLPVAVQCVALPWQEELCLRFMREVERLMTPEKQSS

[2] = biological target: T2, Fatty-acid amide hydrolase 1 (Rattus norvegicus) (UniProt P97612); test: Inhibition of FAAH in rat RBL2H3 cells assessed as blockade of [3H]-anandamide uptake at 0.0001 to 1 uM incubated for 15 mins prior to [3H]-anandamide addition measured after 10 mins by scintillation spectroscopic analysis in presence of JJKK-048; format: cell-based; details: RBL-2H3
T2 sequence (whole entry): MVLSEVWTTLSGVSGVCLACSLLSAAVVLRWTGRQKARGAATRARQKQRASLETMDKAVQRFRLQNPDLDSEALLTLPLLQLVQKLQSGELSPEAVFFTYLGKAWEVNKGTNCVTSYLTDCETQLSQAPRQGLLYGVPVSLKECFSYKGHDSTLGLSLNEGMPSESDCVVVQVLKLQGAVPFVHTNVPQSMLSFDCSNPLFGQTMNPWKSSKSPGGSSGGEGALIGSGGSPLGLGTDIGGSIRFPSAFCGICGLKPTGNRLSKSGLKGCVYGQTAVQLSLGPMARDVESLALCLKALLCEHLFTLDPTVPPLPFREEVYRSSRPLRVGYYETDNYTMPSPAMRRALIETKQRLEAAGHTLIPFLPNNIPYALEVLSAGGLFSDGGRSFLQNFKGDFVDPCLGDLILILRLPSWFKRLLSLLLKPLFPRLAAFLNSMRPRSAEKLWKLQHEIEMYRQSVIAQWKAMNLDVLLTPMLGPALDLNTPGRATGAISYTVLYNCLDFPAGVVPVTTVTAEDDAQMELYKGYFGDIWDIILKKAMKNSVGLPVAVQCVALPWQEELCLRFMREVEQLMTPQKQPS

[3] = biological target: T2, Fatty-acid amide hydrolase 1 (Rattus norvegicus); test: Inhibition of FAAH in rat RBL2H3 cells assessed as blockade of [3H]-anandamide uptake at 1 uM incubated for 15 mins prior to [3H]-anandamide addition measured after 10 mins by scintillation spectroscopic analysis; format: cell-based; details: RBL-2H3
[4] = biological target: T3, Fatty-acid amide hydrolase 1 (Rattus norvegicus, UniProt P97612); test: Inhibition of FAAH in rat RBL2H3 cells assessed as blockade of [3H]-anandamide uptake incubated for 15 mins prior to [3H]-anandamide addition measured after 10 mins by scintillation spectroscopic analysis; format: cell-based, RBL-2H3
T3 sequence (P97612 whole entry): T2 sequence (whole entry)

[5] = biological target: T4, Lysophosphatidylserine lipase ABHD12 (Homo sapiens) (UniProt Q8N2K0); test: Inhibition of human ABHD12 overexpressed in HEK293 cells assessed as 2-AG hydrolysis at 1 uM by fluorescent glycerol assay; format: cell-based
T4 sequence (whole entry): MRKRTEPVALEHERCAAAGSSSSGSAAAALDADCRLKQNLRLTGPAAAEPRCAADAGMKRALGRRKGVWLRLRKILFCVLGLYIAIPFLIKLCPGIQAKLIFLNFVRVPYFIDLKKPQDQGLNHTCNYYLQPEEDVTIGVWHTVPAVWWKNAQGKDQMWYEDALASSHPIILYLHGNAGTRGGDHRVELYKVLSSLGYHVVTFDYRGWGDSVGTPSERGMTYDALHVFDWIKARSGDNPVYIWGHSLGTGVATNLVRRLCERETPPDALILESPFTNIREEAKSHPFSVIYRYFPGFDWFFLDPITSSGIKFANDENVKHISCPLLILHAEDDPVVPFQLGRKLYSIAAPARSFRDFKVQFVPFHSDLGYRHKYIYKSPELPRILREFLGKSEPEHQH

[6] = biological target: T5, Monoacylglycerol lipase ABHD6 (Homo sapiens) (UniProt Q9BV23); test: Inhibition of human ABHD6 overexpressed in HEK293 cells assessed as 2-AG hydrolysis at 1 uM by fluorescent glycerol assay; format: cell-based
T5 sequence (whole entry): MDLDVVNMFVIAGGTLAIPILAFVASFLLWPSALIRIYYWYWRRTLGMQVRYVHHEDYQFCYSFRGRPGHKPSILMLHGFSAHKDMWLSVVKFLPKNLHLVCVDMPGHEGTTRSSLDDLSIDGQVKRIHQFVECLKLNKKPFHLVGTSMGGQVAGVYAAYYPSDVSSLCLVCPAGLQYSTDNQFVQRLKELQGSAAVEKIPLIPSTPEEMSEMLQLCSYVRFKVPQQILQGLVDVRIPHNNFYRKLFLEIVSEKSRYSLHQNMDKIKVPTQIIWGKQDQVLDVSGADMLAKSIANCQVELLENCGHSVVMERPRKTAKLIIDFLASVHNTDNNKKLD

Monoglyceride lipase = biological target: T6, Monoglyceride lipase (Homo sapiens, UniProt Q99685); test: Inhibition of human recombinant MAGL overexpressed in HEK cells using 2-AG as substrate preincubated for 10 mins before substrate addition measured after 10 mins by HPLC analysis; format: cell-based, HEK293; details: read-out: IC50
T6 sequence (Q99685 whole entry): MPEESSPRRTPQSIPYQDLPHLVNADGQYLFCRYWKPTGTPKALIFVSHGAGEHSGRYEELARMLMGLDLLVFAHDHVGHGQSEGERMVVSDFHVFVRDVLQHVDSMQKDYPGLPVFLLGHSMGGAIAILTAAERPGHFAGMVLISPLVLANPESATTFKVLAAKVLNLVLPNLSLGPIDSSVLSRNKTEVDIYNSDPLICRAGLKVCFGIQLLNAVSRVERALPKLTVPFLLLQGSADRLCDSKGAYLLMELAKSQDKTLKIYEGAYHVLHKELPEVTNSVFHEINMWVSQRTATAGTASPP

[7] = biological target: T2, Fatty-acid amide hydrolase 1 (Rattus norvegicus); test: Inhibition of FAAH in rat RBL2H3 cells assessed as blockade of [3H]-anandamide uptake at 0.1 uM incubated for 15 mins prior to [3H]-anandamide addition measured after 10 mins by scintillation spectroscopic analysis; format: cell-based; details: RBL-2H3
[8] = biological target: T7, Fatty-acid amide hydrolase 1 (Homo sapiens) (UniProt O00519); test: Reversible inhibition of human recombinant FAAH overexpressed in African green monkey COS7 cells using […] as substrate assessed as recovery of enzyme activity at 20 x IC50 preincubated for 60 mins followed by 500 fold dilution measured after 10 mins by HPLC analysis; format: cell-based; details: COS-7
T7 sequence (whole entry): T1 sequence (O00519 whole entry)

[9] = biological target: T7, Fatty-acid amide hydrolase 1 (Homo sapiens); test: Inhibition of human recombinant FAAH overexpressed in African green monkey COS7 cells using [3H]-anandamide as substrate at 30 uM preincubated for 10 to 60 mins by liquid scintillation counting analysis; details: COS-7

| inhibition [7] | inhibition [8] | inhibition [9] | Compound | IC50 ([1]; read-out: IC50) [µM] | IC50 ([1]; read-out: pIC50 (converted)) [µM] | inhibition [2] | inhibition [3] | IC50 [4] [µM] | inhibition [5] | inhibition [6] | IC50 (Monoglyceride lipase) [µM] |
| --- | --- | --- | --- | --- | --- | --- | --- | --- | --- | --- | --- |
|  |  |  | COc1nn(C(C)c2ccc(N(c3ccccc3)c3ccccc3)cc2)c(=O)o1 (racemic) | 0.12 | 0.115 | Active | Active | 0.011 | inactive | inactive | 0.63 |
| Active |  |  | O=C(N1CCC(C(c2ccc3c(c2)OCO3)c2ccc3c(c2)OCO3)CC1)n1cncn1 |  |  |  |  |  |  |  |  |
|  | Active | inactive | CCCCCCCCCCCC(=O)c1nc2ncccc2o1 | 0.017 | 0.0166 |  |  |  |  |  |  |
